# Assay results: US4431655A, “2,4-Disubstituted-1,2,5-thiadiazol-3(2H)-one antimicrobials” (Merck & Co., Inc., priority 1982, dated 1984)
# How the values were obtained:
# [1] = Ring stability to hydrolysis, UV absorption changes with time; assay type: physicochemical; details: equal volumes methanol-aqueous phosphate buffer (pH 8); for remaining at 1 h: read-out: % Compound Remaining after 1 hr; for remaining at 16 h: read-out: % Compound Remaining after 16 hr; for remaining at 48 h: read-out: % Compound Remaining after 48 hr; for remaining at 165 h: read-out: % Compound Remaining after 165 hr; for remaining at 336 h: read-out: % Compound Remaining after 336 hr
# Description: Solutions of these compounds were prepared using equal volumes of methanol-aqueous phosphate buffer (pH 8), and decomposition by cleavage of the heterocyclic ring was monitored using ultraviolet absorption changes with time.
# [2] = system: Helminthosporium maydis MF 4775; assay: In vitro minimal inhibitory concentration in nutrient agar; assay type: cell-based; details: Bipolaris maydis, MF4775
# [3] = system: Cercospora beticola MF 4571; assay: as above; assay type: cell-based; details: MF4571
# [4] = system: Colletotrichum lagenarium MF 4800; assay: as above; assay type: cell-based; details: Colletotrichum orbiculare, MF4800
# [5] = system: Rhizoctonia solani MF 4579; assay: as above; assay type: cell-based; details: MF4579
# [6] = system: Helminthosporium oryzae MF 4806; assay: as above; assay type: cell-based; details: Bipolaris oryzae, MF4806
# Monilia nigra MF 3084 = assay: as above; assay type: cell-based; details: Moniliella suaveolens, MF3084
# [7] = system: Fusarium oxysporum MF 3413; assay: as above; assay type: cell-based; details: MF3413
# [8] = system: Phytophthora cambivora MF 3753; assay: as above; assay type: cell-based
# [9] = system: Cladosporium Fulvum MF 3238; assay: as above; assay type: cell-based; details: Fulvia fulva
# [10] = system: Penicillium digitatum MF 4590; assay: as above; assay type: cell-based; details: MF4590
# [11] = system: Thielaviopsis basicola MF 3147; assay: as above; assay type: cell-based; details: Berkeleyomyces basicola, MF3147
# Botrytis cinerea MF 4803 = assay: as above; assay type: cell-based; details: MF4803
# Aspergillus niger MF 11 = assay: as above; assay type: cell-based; details: MF11
# [12] = system: Diaperthe phaseolorum MF 4668; assay: as above; assay type: cell-based
# [13] = system: Sclerotinia sclerotiorum MF 4739; assay: as above; assay type: cell-based; details: MF4739
# [14] = system: Verticillium dahliae MF 2416; assay: as above; assay type: cell-based; details: MF2416
# Alternaria citri MF 2970 = assay: as above; assay type: cell-based; details: MF2970
% Compound Remaining after 0 hr [1],remaining at 1 h [1],remaining at 16 h [1],remaining at 48 h [1],remaining at 165 h [1],remaining at 336 h [1],SMILES,other results
,,,,,,"Cc1nsn(Cc2ccc(Cl)cc2)c1=O [2-[(4-Chlorophenyl)methyl]-4-methyl-1,2,5-thiadiazol-3(2H)-one]",MIC [2]: 0.4 µg/mL; MIC [3]: 1 µg/mL; MIC [4]: 2 µg/mL; MIC [5]: 8 µg/mL; MIC [6]: 1 µg/mL; MIC (Monilia nigra MF 3084): 2 µg/mL; MIC [7]: 4 µg/mL; MIC [8]: 2 µg/mL; MIC [9]: 1 µg/mL; MIC [10]: 4 µg/mL; MIC [11]: 4 µg/mL; MIC (Botrytis cinerea MF 4803): 1 µg/mL; MIC (Aspergillus niger MF 11): 4 µg/mL; MIC [12]: 0.4 µg/mL; MIC [13]: 0.8 µg/mL; MIC [14]: 4 µg/mL; MIC (Alternaria citri MF 2970): 4 µg/mL
100%,,0%,0%,,,O=c1c(Cl)nsn1Cc1ccc(Cl)cc1 [reference compound],
100%,100%,96%,80%,50%,26%,O=c1cnsn1Cc1ccccc1,
100%,48%,6%,0%,,,O=c1c(Cl)nsn1Cc1ccccc1 [reference compound],
100%,100%,100%,100%,100%,99%,"CCCCCCn1snc(C)c1=O [CH3, n-C6 H13, 2-n-Hexyl-4-methyl-1,2,5-thiadiazol-3(2H)-one]",
100%,100%,100%,100%,90%,90%,CCCc1nsn(Cc2ccccc2)c1=O,

SMILES,% Compound Remaining after 0 hr [1],remaining at 1 h [1],remaining at 16 h [1],remaining at 48 h [1],remaining at 165 h [1],remaining at 336 h [1],other results
Cc1nsn(Cc2ccc(Cl)cc2)c1=O [drawing 23],100%,100%,100%,97%,93%,91%,
